Reference: US20140205681A1, “HYDROGEN-BOND SURROGATE PEPTIDES AND PEPTIDOMIMETICS FOR p53 REACTIVATION” (New York University, priority 2013, published 2014)

Assays:
[1] = tested on: UMSCC47 cells; assay: ALDH (ALDEFLUOR) and CD44 (FACS) cancer initiating cell markers; format: cell-based, human
Protocol: Cells were assessed for ALDH activity using the ALDEFLUOR kit according to the manufacturer's protocol (Stem Cell Technologies, British Columbia, Canada). Cells were suspended in ALDEFLUOR assay buffer containing ALDH substrate (bidipy-aminoacetaldehyde, 1 μM per 1×10^6 cells) and incubated for 40 minutes at 37° C. For each experiment, a sample of cells was incubated with 50 mM of diethylaminobenzaldehyde (DEAB), a specific ALDH inhibitor, to serve as the negative control. For CD44 expression, cells were harvested and resuspened in incubation buffer with PE-CD44 antibody (Abcam) or mouse PE-IgG (Abcam) for 50 minutes on ice. Suspensions were centrifuged at 300×g for 5 minutes at 4° C. and resuspend in 0.5 mL of 1% paraformaldehyde solution for analysis. Fluorescence activated cell sorting (FACS) analyses were performed using BD FACS Calibur at The Ohio State University Comprehensive Cancer Center Analytical Cytometry Core.

[2] = tested on: UMSCC74A cells; assay: Clonogenic survival (crystal violet); format: cell-based, human; details: overexpression of CH1, UMSCC74A cells
Protocol: Cell proliferation was assessed using the MTT reagent (Roche Molecular Biochemicals, Nutley, N.J.) to detect metabolic active cells. Absorbance was measured at 570 nm in the Spectra Max 190 ELISA reader (Molecular Devices, Sunnyvale, Calif.) after overnight incubation. For clonogenic survival, 200 cells per well were plated in complete growth media and allowed to grow until visible colonies were formed (14 days). Cell colonies were fixed with cold methanol, stained with 0.25% crystal violet in 25% methanol, washed, and air dried. For apoptosis, cells were harvested, washed with cold PBS, and co-stained with Annexin V and propidium iodide according to the manufacturer's protocol (ApoAlert Annexin V-FITC Apoptosis Kit; Clontech). Apoptotic cells were analyzed using BD FACS Calibur (BD Biosciences Corporation, Franklin Lakes, N.J.) at The Ohio State University Comprehensive Cancer Center Analytical Cytometry Core.

[3] = target: T1, MDM2-p300 (Homo sapiens, UniProt Q09472); assay: Immunoprecipitation of MDM2-p300 association; format: cell-based; details: introduction of CH1, UMSCC74A cells
T1 construct: Cell lysates were extracted, immunoprecipitated with anti-p300 antibody, and immunoblotted with anti-MDM2; endogenous in cells; host or cells: UMSCC74A (HPV-negative, p53 wildtype HNSCC)
T1 sequence (Q09472 whole entry): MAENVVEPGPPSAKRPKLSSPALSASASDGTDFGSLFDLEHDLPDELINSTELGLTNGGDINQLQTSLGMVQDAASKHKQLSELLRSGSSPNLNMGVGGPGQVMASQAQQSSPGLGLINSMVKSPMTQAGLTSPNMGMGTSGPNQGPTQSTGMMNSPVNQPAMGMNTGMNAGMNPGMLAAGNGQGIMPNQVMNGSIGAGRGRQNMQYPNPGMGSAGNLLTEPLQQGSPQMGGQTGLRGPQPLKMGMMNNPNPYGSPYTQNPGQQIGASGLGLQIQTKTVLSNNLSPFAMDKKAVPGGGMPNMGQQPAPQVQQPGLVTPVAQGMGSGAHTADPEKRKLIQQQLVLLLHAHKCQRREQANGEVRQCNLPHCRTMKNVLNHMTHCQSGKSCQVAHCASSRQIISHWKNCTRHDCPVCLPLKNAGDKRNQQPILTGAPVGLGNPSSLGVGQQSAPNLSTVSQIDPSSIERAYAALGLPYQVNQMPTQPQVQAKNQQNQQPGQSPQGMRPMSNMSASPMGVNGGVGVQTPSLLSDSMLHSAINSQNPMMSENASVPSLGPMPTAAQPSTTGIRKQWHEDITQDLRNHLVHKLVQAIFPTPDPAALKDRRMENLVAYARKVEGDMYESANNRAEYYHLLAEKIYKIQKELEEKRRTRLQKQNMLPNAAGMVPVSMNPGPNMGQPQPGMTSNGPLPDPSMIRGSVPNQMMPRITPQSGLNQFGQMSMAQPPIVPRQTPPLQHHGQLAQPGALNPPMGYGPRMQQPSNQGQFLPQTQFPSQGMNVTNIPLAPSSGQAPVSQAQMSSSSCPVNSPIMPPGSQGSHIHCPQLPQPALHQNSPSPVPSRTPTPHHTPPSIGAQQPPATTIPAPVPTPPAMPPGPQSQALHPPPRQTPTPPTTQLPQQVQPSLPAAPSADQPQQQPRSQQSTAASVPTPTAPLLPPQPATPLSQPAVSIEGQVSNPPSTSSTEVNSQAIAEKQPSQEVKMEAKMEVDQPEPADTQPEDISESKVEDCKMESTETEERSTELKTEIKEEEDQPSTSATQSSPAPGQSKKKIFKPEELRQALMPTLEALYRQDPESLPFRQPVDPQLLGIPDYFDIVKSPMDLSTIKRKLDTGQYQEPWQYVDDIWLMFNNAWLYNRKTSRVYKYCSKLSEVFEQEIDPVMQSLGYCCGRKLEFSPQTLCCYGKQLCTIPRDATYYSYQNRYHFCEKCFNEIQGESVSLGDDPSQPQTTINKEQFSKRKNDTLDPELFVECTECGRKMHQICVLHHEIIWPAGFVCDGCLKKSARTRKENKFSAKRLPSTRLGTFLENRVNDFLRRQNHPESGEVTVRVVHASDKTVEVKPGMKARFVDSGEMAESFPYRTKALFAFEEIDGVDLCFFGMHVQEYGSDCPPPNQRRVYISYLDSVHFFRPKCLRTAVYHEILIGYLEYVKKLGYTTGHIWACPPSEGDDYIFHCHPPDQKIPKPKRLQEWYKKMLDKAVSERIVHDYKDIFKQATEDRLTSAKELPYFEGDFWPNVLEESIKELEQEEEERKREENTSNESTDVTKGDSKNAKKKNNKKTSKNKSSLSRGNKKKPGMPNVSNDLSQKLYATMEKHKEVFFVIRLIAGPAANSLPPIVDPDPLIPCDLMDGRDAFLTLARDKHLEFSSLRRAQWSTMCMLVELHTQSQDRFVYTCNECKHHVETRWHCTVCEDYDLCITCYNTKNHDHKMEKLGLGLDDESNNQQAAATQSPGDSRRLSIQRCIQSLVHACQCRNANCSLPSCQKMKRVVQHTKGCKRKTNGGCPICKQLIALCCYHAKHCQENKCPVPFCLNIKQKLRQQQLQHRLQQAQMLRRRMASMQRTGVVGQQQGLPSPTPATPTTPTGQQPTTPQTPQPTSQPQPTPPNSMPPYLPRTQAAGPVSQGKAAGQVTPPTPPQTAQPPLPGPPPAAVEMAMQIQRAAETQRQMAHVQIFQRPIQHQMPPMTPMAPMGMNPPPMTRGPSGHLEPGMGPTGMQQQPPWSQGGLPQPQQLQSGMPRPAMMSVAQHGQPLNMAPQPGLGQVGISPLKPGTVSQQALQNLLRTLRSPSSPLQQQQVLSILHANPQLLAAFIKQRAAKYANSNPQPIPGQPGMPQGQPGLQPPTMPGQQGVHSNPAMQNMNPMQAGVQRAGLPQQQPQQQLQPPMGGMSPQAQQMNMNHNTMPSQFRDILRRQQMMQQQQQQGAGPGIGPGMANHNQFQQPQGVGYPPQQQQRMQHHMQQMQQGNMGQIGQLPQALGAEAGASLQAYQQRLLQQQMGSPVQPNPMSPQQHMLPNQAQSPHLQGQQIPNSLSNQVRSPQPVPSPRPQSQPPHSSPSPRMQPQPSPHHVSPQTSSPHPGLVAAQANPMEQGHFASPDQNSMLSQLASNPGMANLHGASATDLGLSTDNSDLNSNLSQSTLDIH

[4] = CH1 overexpression, UMSCC47 cells

CH1: CH1 domain of p300 ectopically expressed from pcDNA3.1/CH1 in stably transfected HNSCC cells
ALDH^high population, reduced by [1, 4]: 46%
CD44^high population, reduced by [1, 4]: 31%
CD44 levels (FACS), reduced by ([1]; UMSCC47/CH1 vs UMSCC47/empty cells): 33%
clonogenic survival, inhibited by [2]: 70%
interaction between p300 and MDM2 [3]: disrupted
